Experimental data from article PMC4890880 (ACS infectious diseases, 2016).
Like-named read-outs stand apart in the source and are kept apart here.

Experiments:
[1] = test system: HepG2-A16-CD81EGFP cells; details: for IC50: read-out: Tox_IC50, HepG2 cytotoxicity
[2] = test system: HepG2-A16-CD81EGFP cells; assay: cells; details: Homo sapiens; for IC50: HepG2, read-out: Tox IC50; for inhibition at 50 µM: HepG2, read-out: Tox max inhibition (%) @ 50 uM
[3] = test system: Plasmodium berghei (Pb-Luc) exoerythrocytic-stage parasites; assay: microbe, parasite or virus in culture; details: for IC50: read-out: PbLuc IC50, dose response, 1/3 dilutions, max conc. 10 or 50 uM, unit inferred
[4] = 2nd round, maximal inhibition in dose series
[5] = sheet 2nd round, maximal inhibition in dose response
[6] = HepG2, read-out: HepG2 Tox% @ 50 uM rep1
[7] = HepG2, read-out: HepG2 Tox% @ 50 uM rep2
[8] = read-out: Inhibition% @ 50 uM rep1
[9] = read-out: Inhibition% @ 50 uM rep2
[10] = read-out: PbLuc max inhibition (%) @ 50 uM

Structure (SMILES)	cytotoxicity at 50 µM [2, 6] [%]	cytotoxicity at 50 µM [2, 7] [%]	inhibition at 50 µM [3, 8] [%]	inhibition at 50 µM [3, 9] [%]	further results
CO[C@@H]1CN(C)C(=O)c2ccc(NC(=O)c3ccc4c(c3)OCO4)cc2OC[C@@H](C)N(Cc2ccc3c(c2)OCO3)C[C@H]1C [BRD-K38901607-001-01-5]	–	–	–	–	IC50 ([1]; sheet "2nd round"): > 10 µM; Tox_max_inhibition (%) ([1]; sheet "2nd round"): 11%
CN1c2ccc(C#Cc3cccnc3)cc2[C@@H]2[C@@H](CCN2C(=O)c2cccc(F)c2)[C@@H]1CO [BRD-K18296007-001-01-0]	–	–	–	–	Tox_max_inhibition (%) [1, 4]: 14%; IC50 ([1]; 2nd round, unit inferred): > 10 µM
CCCNC(=O)N1[C@H](C#N)[C@H](c2ccc(C#Cc3ccc(F)cc3)cc2)[C@@H]1CO [BRD-K61371184-001-01-2]	–	–	–	–	IC50 ([1]; sheet "2nd round"): > 10 µM; Tox_max_inhibition (%) ([1]; sheet "2nd round"): 22%
OC[C@@H]1[C@H](c2ccc(-c3ccc(F)cc3)cc2)[C@@H](CNC2CCCC2)N1CCC(F)(F)F [BRD-K76178468-001-01-1]	–	–	–	–	IC50 ([1]; sheet 2nd round): > 10 µM; Tox_max_inhibition (%) [1, 5]: 22%
COc1ccc(NC(=O)N2CCCCN3[C@H](CO)[C@@H](c4ccc(-c5ccccc5F)cc4)[C@H]3C2)cc1 [BRD-K55569739-001-01-9]	–	–	–	–	IC50 ([1]; sheet 2nd round): > 10 µM; Tox_max_inhibition (%) [1, 5]: 3.75%
C[C@H]1CN([C@@H](C)CO)C(=O)c2cccc(NC(=O)NC3CCCCC3)c2O[C@H]1CN(C)Cc1ccc(C(F)(F)F)cc1 [BRD-K56432748-001-01-8]	–	–	–	–	IC50 ([1]; sheet 2nd round): > 10 µM; Tox_max_inhibition (%) [1, 5]: 10%
C[C@H](CO)N1C[C@H](C)[C@H](CN(C)C(=O)Nc2ccc(C(F)(F)F)cc2)Oc2c(NC(=O)c3ccc(-c4nccs4)cc3)cccc2C1=O [BRD-K74949371-001-01-3]	–	–	–	–	IC50 ([1]; sheet 2nd round): > 10 µM; Tox_max_inhibition (%) [1, 5]: 6.39%
CC(C)(C)[S@+]([O-])N1Cc2cc(C(=O)NCC(F)(F)F)nc(-c3cccc(-c4cccc(F)c4)c3)c2[C@@H]1CCO [BRD-K14002526-001-01-8]	–	–	–	–	IC50 ([1]; sheet "2nd round"): > 10 µM; Tox_max_inhibition (%) ([1]; sheet "2nd round"): 37%
COc1ccc2c3c([nH]c2c1)[C@H](CO)N(C(C)=O)CC31CCN(C(=O)Nc2ccc(F)cc2F)CC1 [BRD-K07378992-001-01-6]	–	–	–	–	IC50 ([1]; sheet "2nd round"): > 10 µM; Tox_max_inhibition (%) ([1]; sheet "2nd round"): 7%
COc1ccc2c3c([nH]c2c1)[C@H](CO)N(S(C)(=O)=O)CC31CCN(C(=O)Nc2ccccc2)CC1 [BRD-K47463456-001-01-7]	–	–	–	–	IC50 ([1]; sheet "2nd round"): > 10 µM; Tox_max_inhibition (%) ([1]; sheet "2nd round"): 13%
CO[C@@H]1CN(C)C(=O)c2ccc(NC(=O)NC(C)C)cc2OC[C@@H](C)N(Cc2ccccc2)C[C@H]1C [BRD-K91191258-001-01-9]	–	–	–	–	IC50 ([1]; sheet 2nd round): > 10 µM; Tox_max_inhibition (%) [1, 5]: 9%
O=C(Nc1ccc(Cl)cc1)N1C[C@@H]2[C@H](c3ccccc31)[C@@H](CO)N2CC1CCCCC1 [BRD-K89605819-001-01-4]	–	–	–	–	IC50 ([1]; sheet "2nd round"): > 10 µM; Tox_max_inhibition (%) ([1]; sheet "2nd round"): 4.75%
C[C@H]1CN([C@@H](C)CO)C(=O)c2cc(/C=C/c3ccccc3)cnc2O[C@@H]1CN(C)C(=O)C1CCCCC1 [BRD-K27989629-001-01-7]	–	–	–	–	IC50 ([1]; sheet 2nd round): > 10 µM; Tox_max_inhibition (%) [1, 5]: 5%
O=C(Nc1ccccc1F)N1CCCCN2[C@H](CO)[C@@H](c3ccc(/C=C/c4ccccc4)cc3)[C@@H]2C1 [BRD-K50964970-001-01-5]	–	–	–	–	IC50 ([1]; sheet "2nd round"): > 10 µM; Tox_max_inhibition (%) ([1]; sheet "2nd round"): 8%
CC(C)CC#Cc1ccc([C@@H]2[C@H]3CN(C(=O)Nc4ccccc4)CCCCN3[C@H]2CO)cc1 [BRD-K28504277-001-01-8]	–	–	–	–	IC50 ([1]; sheet 2nd round): 5.23 µM; Tox_max_inhibition (%) [1, 5]: 99%
N#C[C@@H]1[C@H](c2ccccc2C2=CCCCC2)[C@H](CO)N1S(=O)(=O)c1ccccc1 [BRD-K90570429-001-01-9]	–	–	–	–	IC50 ([1]; sheet "2nd round"): > 10 µM; Tox_max_inhibition (%) ([1]; sheet "2nd round"): 8%
COc1ccc(S(=O)(=O)Nc2ccc3c(c2)C(=O)N([C@H](C)CO)C[C@@H](C)[C@@H](CN(C)S(=O)(=O)c2ccc(Cl)cc2)OCCCC[C@@H](C)O3)cc1 [BRD-K63849586-001-01-9]	–	–	–	–	Tox_max_inhibition (%) [1, 4]: 13%; IC50 ([1]; 2nd round, unit inferred): > 10 µM
CCCNC(=O)N1[C@H](C#N)[C@H](c2ccc(C3=CCCCC3)cc2)[C@@H]1CO [BRD-K52785744-001-01-7]	–	–	–	–	IC50 ([1]; sheet "2nd round"): 7.93 µM; Tox_max_inhibition (%) ([1]; sheet "2nd round"): 50%
CC(C)(C)c1ccc(O)c(CNC2CCCCC2)c1 [MMV665785]	97	99	99	102	–

Structure (SMILES)	cytotoxicity at 50 µM [2, 6] [%]	cytotoxicity at 50 µM [2, 7] [%]	inhibition at 50 µM [3, 8] [%]	inhibition at 50 µM [3, 9] [%]	further results
COc1ccc(C(=O)C(CCC(CNC(C)(C)C)C(=O)c2ccc(OC)cc2)CNC(C)(C)C)cc1 (stereo not drawn) [MMV007591]	101	–	103	104	IC50 [2]: 25.3 µM; inhibition at 50 µM [2]: 92%; IC50 [3]: 7.2 µM; inhibition at 50 µM [3, 10]: 99%
CC(C)(C)c1ccc(C(=O)Nc2nc3ccccc3s2)cc1 [MMV142383]	89	96	103	105	–
Cc1cc(Nc2cccc(F)c2)nc(NCc2ccccc2)n1 [MMV006319]	99	102	104	106	–
COc1ccccc1N=C1C(=O)c2ccccc2C(O)=C1N1CCCCC1 [MMV085203]	94	97	103	105	IC50 [2]: 3.13 µM; inhibition at 50 µM [2]: 96%; IC50 [3]: 0.564 µM; inhibition at 50 µM [3, 10]: 100%
C=C(C)CCC(C)N1CCC(N2CCC(C(=O)NCCc3ccccc3)CC2)CC1 (stereo not drawn) [MMV666110]	91	97	101	99	–
COc1ccc(CCN2C(=O)c3[nH]nc(-c4cc(Cl)c(C)cc4O)c3C2c2ccccc2F)cc1 (stereo not drawn) [MMV396717]	97	–	101	101	–
c1ccc(CNc2nc(Nc3ccccc3)nc3ccccc23)cc1 [MMV006169]	101	–	103	104	–
Cc1ccc(F)cc1NC(=O)c1cc(Cl)ccc1Nc1ccccc1 [MMV007275]	-8	–	75	69	–
Cc1ccc(-c2cc3c(nn2)-c2ccccc2C3=O)cc1 [MMV666021]	31	9	99	89	–
COc1ccc2nc(C)cc(Nc3ccccc3O)c2c1 [MMV274073]	59	88	100	100	–
O=C(NCC(c1ccsc1)N1CCCCCC1)c1ccc(C(F)(F)F)cc1 (stereo not drawn) [MMV396672]	98	99	104	104	–
Clc1ccc2[nH]c3c(NCCCN4CCOCC4)ncnc3c2c1 [MMV006587]	95	98	101	100	–
CN1CCN(c2ncnc3c2[nH]c2ccc(Cl)cc23)CC1 [MMV396704]	32	–	99	101	–
Cc1ccc(NC(=O)Nc2cccc(Cl)c2)cc1F [MMV000911]	85	89	104	105	–
COc1ccc2c(c1)OC(O)(C(F)(F)C(F)(F)F)CC2=O (stereo not drawn) [MMV007839]	96	96	102	98	–
O=C1C2=C(Nc3ccccc3SC2c2ccccc2)c2ccccc21 (stereo not drawn) [MMV645672]	87	–	104	104	–
CN(N=O)C1=C(NC2CCCCC2)C(=O)c2ccccc2C1=O [MMV667492]	98	–	103	104	–
CCCCNc1nc(NC(C)(C)C)nc(NC(C)(C)C)n1 [MMV665864]	41	–	94	94	IC50 [2]: > 50 µM; inhibition at 50 µM [2]: 41%; IC50 [3]: 15.5 µM; inhibition at 50 µM [3, 10]: 89%
Cc1cc(C)c2nc(N3CCC(C(=O)NCCCN4CCC(N5CCCCC5)CC4)CC3)sc2c1 [MMV019780]	98	98	101	101	–
